Measured values taken from patent US11130780B2, “Inhibitors of growth factor activation enzymes” (Washington University, priority 2015, dated 2021).

Experiments:
HGFA = target: T1, HGFA (Homo sapiens, UniProt Q04756); test: Dilution recovery experiments with HGFA; format: biochemical; details: rapid 1:350 dilution; Boc-QLR-AMC 250 μM
T1 construct: His6 tag (N); seven amino acid spacer and seven amino acid TEV cleavage site (N); Honey Bee melittin signal peptide (N); made in house; host or cells: High 5 insect cells (baculovirus; virus raised in Sf9)
T1 sequence (Q04756 373-655): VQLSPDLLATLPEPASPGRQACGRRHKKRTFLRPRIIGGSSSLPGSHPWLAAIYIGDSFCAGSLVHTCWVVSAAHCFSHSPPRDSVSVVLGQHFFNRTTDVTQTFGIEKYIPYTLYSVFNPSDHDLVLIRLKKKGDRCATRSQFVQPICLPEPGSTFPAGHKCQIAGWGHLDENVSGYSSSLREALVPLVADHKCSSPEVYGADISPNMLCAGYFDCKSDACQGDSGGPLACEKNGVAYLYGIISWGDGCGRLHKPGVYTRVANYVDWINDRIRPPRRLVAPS
Description: After incubating for 20 minutes at room temperature, these reactions were diluted rapidly (1:350) in TNC buffer containing 250 μM Boc-QLR-AMC substrate (˜7 times Kin). Activity was monitored by recording the change in fluorescence (excitation at 380 nm and emission at 460 nn) over time in a Biotek Synergy 2 plate reader. GraphPad Prism was used to plot the change in fluorescence over time.

[1] = test system: c-MET phosphorylation in MDA-MB-231 cells; test: c-MET phosphorylation (Y1234/1235) in MDA-MB-231 cells treated with HGFA processed pro-HGF; format: cell-based, human; details: pro-HGF/HGFA reactions, read-out: EC50, inhibition of c-MET phosphorylation
Text: To show the inhibition provided by the tetrapeptide compounds would have effects on cell signaling through c-MET kinase, a phosphorylation assay using the invasive breast cancer cell line, MDA-MB-231 was developed. This cell line has high expression of c-MET and pro-HGFA but not pro-HGF.
MDA-MB-231 cells were maintained in RPMI medium (Sigma-Aldrich R8758, St. Louis, Mo.) containing 10% fetal bovine serum (Sigma F2442) and 1× Penicillin/Streptomycin (Pen/Strep) antibiotics (Thermo Fisher SV30010). […] After 18 hours, cells were switched to fresh starve media and then treated with HGFA Proteolysis reactions containing 1 nM HGFA, 50 ng pro-HGF and various amounts of inhibitors. […] Lysate aliquots were mixed with reducing SDS gel loading buffer and run on 10% PAGE.
Immunoblots were performed as described previously, except primary antibodies, anti-phospho cMet (Cell Signaling, CS3077) and anti-total cMet (Cell Signaling, CS3127) were used and diluted in 5% BSA/TBST. Secondary antibodies, HRP-anti rabbit antibody (CS7074) and HRP-anti mouse (CS7076) were used, respectively. All antibodies were used at a 1:1000 dilution. Images were obtained and quantitated using BioRad ChemiDoc MP Imaging System. cMet phosphorylation signals were normalized using the total cMet signals and % inhibition calculated using the ratio of inhibited versus uninhibited HGFA Proteolytic reactions. […]

[2] = test system: RON phosphorylation in T47D cells; test: RON phosphorylation sandwich ELISA in T47D cells; format: cell-based; details: HGFA-mediated pro-MSP stimulation
Description: Detection and quantification of pRON in T47D cells was performed using a sandwich ELISA assay. RON capture antibody (R&D Systems, AF691) was immobilized on high protein binding 96-well plates. Next, cell lysates are added to wells, followed by incubation with an anti-phosphotyrosine-HRP antibody and then addition of a TMB substrate. Optical density of wells was determined by reading plates at 450 nm in a plate reader.

## CC(=O)N[C@@H](CCCCN)C(=O)N[C@@H](CCC(N)=O)C(=O)N[C@@H](CC(C)C)C(=O)N[C@@H](CCCNC(=N)N)C(=O)c1nccs1 [Compound 5, Ac-KQLR(SEQ ID NO: 1)-kt]
HGFA
  reversibility of HGFA inhibition: reversible inhibitor

## CC(=O)N[C@@H](CCCCN)C(=O)N[C@@H](CCCNC(=N)N)C(=O)N[C@@H](CC(C)C)C(=O)N[C@@H](CCCNC(=N)N)C(=O)c1nccs1 [Compound 5g, Ac-KRLR(SEQ ID NO: 8)-kt]
[1]
  EC50: 180 nM

## N=C(N)c1ccc2cc(OC(=O)c3ccc(N=C(N)N)cc3)ccc2c1 [Nafamostat, reference compound]
[2]
  RON phosphorylation (pRON): reduces pRON to background levels
